Test results taken from patent US20140248227A1, “DEODORIZING COMPOSITIONS” (Henkel AG & Co. KGaA, priority 2011, published 2014).

Assay: odor evaluation of filter papers treated with active agent and artificial perspiration mixture by six trained testers
Conditions: 0.5-wt % solution in ethanol on filter paper; 24 hours at room temperature; scale 0 (no difference from ethanol control) to 4 (very much better odor reduction)
Excerpt: An artificial perspiration mixture was produced by mixing different short-chain fatty acids at specific quantitative ratios (C6, C8, C9, C10, isovaleric acid). respective 0.5-wt % solutions in ethanol were produced of each of the active agents and active-agent combinations to be tested, applied in a standardized quantity onto filter paper, and dried for one hour at room temperature. The artificial perspiration mixture was then applied in a standardized quantity, and the filters were stored for 24 hours at room temperature in a closed container. An odor evaluation of the samples was carried out by six trained testers using a scale from 0 (no difference from ethanol control) to 4 (very much better odor reduction as compared with ethanol control).

| SMILES | reduction in perspiration odor as compared with the ethanol control |
| --- | --- |
| CC12CCC(CC1)C(C)(C)O2 [eucalyptol, 1,3,3-trimethyl-2-oxabicyclo[2.2.2]octane] | 0.92 units |
| C/C=C\c1ccc(OC)cc1 [anethole] | 2.42 units |
| CC(C)[C@@H]1CC[C@@H](C)C[C@H]1O (racemic) [DL-Menthol, DL-menthol] | 1.67 units |
